Values quoted from earlier work, collected in patent US20250333447A1, “CHIMERIC SMALL MOLECULES FOR LABELING PROTEINS WITH IMMUNOGENIC MOIETIES AND METHODS OF USE THEREOF” (The Brigham and Women's Hospital, Inc., priority 2022, published 2025).

Key:
HSP90 = details: cell free assay
PSMA = PSMA (Homo sapiens, UniProt Q04609)
Chain of PSMA (Q04609 whole entry, species assumed): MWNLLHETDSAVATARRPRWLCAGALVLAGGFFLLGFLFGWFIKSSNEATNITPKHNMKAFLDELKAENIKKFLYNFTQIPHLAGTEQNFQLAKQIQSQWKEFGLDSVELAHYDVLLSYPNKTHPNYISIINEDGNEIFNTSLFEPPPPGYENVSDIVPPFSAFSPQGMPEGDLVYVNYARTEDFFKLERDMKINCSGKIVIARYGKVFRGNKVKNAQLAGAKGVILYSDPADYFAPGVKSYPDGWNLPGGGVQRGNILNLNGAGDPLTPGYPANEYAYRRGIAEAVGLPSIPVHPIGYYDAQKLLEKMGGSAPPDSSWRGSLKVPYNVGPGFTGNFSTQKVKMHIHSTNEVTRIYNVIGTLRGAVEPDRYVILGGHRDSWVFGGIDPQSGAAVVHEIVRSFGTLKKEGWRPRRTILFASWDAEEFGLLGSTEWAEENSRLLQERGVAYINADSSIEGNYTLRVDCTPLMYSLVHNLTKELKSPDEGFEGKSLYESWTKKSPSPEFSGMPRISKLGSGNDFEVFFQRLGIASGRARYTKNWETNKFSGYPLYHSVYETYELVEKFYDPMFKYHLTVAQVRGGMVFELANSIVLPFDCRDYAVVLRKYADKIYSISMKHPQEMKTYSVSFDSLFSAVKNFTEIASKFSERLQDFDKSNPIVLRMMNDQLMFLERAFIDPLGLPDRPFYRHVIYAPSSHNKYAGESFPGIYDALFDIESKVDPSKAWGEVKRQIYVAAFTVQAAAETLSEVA

Compound	IC50 (HSP90)	Ki (PSMA)
CO[C@H]1/C=C\C=C(/C)C(=O)NC2=CC(=O)C(NCCN(C)C)=C(C[C@@H](C)C[C@H](OC)[C@H](O)[C@@H](C)/C=C(\C)[C@@H]1OC(N)=O)C2=O [Alvespimycin]	62 nM	–
O=C(O)CC[C@H](NC(=O)N[C@@H](CCC(=O)O)C(=O)O)C(=O)O [DUPA]	–	8 nM
